Measured values as given in patent publication US8690865B2, “Methods and devices for thermal treatment” (Georgia Tech Research Corporation, priority 2004, dated 2014).
Where two headings read alike, the source gives them in different places.

Assays:
[1] = skin permeability measurement in Franz diffusion cell after microheater microablation
Method: Microheater components are tested for use in ablation of stratum corneum and increasing barrier permeability and increased drug transport by assessing transport across cadaver skin by three different molecules. Calcein is a low molecular weight (623 Da) fluorescent molecule used to measure skin permeability by spectrofluorimetric assay and image transport pathways in skin by confocal microscopy. […] Insulin is a polypeptide (6 kDa) that will be used for comparison with in vivo studies involving insulin delivery to diabetic rats. To perform skin permeability measurements, cadaver epidermis is placed in a Franz diffusion cell at 37° C. and an array of microheaters is then positioned on the stratum corneum side and thermally activated to cause microablation. […] Every hour, or more frequently, 1 ml of receptor solution is sampled, and replaced with fresh saline, and fluorescence intensity is measured using calibrated spectrofluorometry and analyzed to determine rates of transdermal delivery.

[2] = in vivo transport into and across skin treated with thermal treatment device; parameters: species or system Sprague-Dawley hairless rat; conditions: hairless rat skin treated with thermal treatment device; brief exposure to dye or over an hour to calcein solution
Method: (§1) The in vivo skin model is a Sprague-Dawley hairless rat, a commonly used model for human skin permeability due to the similarity of hairless rat and human skin. For initial studies, rats ARE anesthetized by intraperitoneal injection of urethane (1000 mg/kg) and treated with a thermal treatment device of the present invention. The skin is exposed either briefly to a blue tissue marking dye to visualize the size and location of pores, or exposed for over an hour to a calcein solution to image the transdermal transport process. After sacrificing the animal, skin specimens are excised and prepared for histological examination by cryostat sectioning.

[3] = insulin delivery through micropores in streptozotocin-diabetic rats; assay type: in vivo, rat; conditions: treated skin area exposed to Humulin-R insulin solution
Method: as §1
For insulin delivery studies, rats are made diabetic by intravenous injection with 100 mg/kg streptozotocin, which produces diabetes the next day due to destruction of pancreatic islet cells. Under urethane anesthesia, skin is treated with a thermal treatment device of the present invention and the treated skin area is exposed to an Humulin-R insulin solution. Blood samples are collected by tail veil laceration over time to measure glucose concentration using a FreeStyle glucose monitor to determine pharmacodynamic response and to measure insulin concentration by radioimmunoassay to determine pharmacokinetic response, after which the animal is sacrificed.

| transport across cadaver skin (measured in receptor solution) [1] | Compound | transport into micropores and across the epidermis (histological tissue sections) [2] | transport across cadaver skin (measured in receptor solution) ([1]; cadaver epidermis, Franz diffusion cell at 37° C., after microablation by microheater array, added individually to donor compartment) | blood glucose (pharmacodynamic response) [3] | insulin concentration in blood (radioimmunoassay, pharmacokinetic response) [3] |
| --- | --- | --- | --- | --- | --- |
| later measured in the receptor solution | O=C(O)CN(CC(=O)O)Cc1cc2c(cc1O)Oc1cc(O)c(CN(CC(=O)O)CC(=O)O)cc1C21OC(=O)c2ccccc21 [Calcein] | show transport of the molecules into the micropores and with time, transport across the epidermis |  |  |  |
|  | Insulin |  | later measured in the receptor solution | response to glucose control | insulin in the blood |
